{
  "source": "patent US4550186A",
  "about": "“Binuclear copper (II) carboxylates formed from amine-carboxyboranes” (Duke University, priority 1983, dated 1985)",
  "target": "T1, transfer ribonucleic acid polymerase (Mus musculus, UniProt B2RXC6+P59470)",
  "T1 sequence (B2RXC6 1-1390)": "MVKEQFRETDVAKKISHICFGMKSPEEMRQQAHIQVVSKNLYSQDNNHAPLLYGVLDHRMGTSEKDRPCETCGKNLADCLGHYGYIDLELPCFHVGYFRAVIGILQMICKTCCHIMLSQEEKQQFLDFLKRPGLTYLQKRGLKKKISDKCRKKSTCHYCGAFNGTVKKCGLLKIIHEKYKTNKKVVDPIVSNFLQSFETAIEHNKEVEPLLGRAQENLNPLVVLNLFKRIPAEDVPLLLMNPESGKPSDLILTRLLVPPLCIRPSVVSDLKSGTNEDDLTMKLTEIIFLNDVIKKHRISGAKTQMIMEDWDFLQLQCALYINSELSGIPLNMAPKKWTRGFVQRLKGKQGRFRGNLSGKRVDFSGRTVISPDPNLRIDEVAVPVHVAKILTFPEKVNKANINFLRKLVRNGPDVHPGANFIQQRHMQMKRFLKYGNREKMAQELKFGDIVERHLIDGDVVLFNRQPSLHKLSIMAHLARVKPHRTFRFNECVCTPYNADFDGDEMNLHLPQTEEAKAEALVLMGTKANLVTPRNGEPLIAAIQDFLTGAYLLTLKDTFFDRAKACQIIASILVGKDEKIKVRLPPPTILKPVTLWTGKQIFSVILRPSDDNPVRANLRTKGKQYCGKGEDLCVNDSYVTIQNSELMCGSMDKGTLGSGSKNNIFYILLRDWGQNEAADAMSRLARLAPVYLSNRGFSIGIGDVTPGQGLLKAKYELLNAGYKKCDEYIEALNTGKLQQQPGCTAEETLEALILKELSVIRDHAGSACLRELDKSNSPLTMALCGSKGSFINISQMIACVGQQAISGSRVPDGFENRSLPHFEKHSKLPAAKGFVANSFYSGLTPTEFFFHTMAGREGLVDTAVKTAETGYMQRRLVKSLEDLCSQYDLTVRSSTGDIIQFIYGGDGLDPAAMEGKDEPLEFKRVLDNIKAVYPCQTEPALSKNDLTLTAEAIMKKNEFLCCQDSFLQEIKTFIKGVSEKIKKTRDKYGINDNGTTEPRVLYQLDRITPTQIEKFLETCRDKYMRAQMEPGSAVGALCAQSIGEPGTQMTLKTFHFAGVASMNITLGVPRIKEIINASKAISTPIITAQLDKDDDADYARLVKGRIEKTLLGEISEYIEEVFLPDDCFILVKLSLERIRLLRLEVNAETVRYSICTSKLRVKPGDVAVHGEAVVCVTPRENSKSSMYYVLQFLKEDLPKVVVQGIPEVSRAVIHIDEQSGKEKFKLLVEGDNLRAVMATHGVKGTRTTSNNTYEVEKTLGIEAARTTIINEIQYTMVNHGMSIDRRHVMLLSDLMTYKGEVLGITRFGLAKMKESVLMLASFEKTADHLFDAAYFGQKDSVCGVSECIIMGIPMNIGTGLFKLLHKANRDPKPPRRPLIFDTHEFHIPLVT",
  "T1 sequence (P59470 1-1133)": "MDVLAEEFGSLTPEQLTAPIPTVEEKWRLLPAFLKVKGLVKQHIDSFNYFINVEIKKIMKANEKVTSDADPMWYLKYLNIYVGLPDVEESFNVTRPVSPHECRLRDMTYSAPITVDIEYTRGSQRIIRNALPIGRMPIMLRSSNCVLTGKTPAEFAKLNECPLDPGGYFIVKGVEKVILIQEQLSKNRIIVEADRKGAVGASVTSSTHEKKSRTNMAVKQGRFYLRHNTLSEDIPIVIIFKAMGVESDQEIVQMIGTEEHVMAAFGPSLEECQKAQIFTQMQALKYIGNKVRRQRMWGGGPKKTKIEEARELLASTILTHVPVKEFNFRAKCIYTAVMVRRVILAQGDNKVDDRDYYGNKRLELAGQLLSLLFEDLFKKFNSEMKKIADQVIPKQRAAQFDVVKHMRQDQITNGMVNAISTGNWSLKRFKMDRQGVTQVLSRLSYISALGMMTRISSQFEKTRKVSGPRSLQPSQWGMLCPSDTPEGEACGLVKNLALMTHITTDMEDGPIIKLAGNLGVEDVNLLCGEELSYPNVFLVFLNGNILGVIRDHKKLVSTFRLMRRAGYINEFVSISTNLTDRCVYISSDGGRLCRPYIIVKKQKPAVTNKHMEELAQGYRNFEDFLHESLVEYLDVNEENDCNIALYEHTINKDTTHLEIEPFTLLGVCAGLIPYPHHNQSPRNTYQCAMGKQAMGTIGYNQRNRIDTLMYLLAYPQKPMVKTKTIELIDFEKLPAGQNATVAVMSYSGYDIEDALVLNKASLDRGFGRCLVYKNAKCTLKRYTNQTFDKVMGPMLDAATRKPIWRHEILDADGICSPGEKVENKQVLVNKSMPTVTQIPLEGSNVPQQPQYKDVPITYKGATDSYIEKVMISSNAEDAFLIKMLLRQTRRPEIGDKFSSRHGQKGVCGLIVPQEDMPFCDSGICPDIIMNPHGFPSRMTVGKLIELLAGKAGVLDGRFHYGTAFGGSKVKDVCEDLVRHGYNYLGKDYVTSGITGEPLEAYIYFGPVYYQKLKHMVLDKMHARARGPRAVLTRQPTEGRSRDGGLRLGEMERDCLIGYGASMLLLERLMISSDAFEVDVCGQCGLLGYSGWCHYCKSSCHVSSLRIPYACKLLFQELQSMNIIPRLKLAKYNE",
  "test": "In vitro transfer ribonucleic acid polymerase activity",
  "assay_type": "biochemical",
  "conditions": "read-out: ID50, Transfer ribonucleic acid polymerase activity",
  "procedure": "CF1 male mice (~30 g) were implanted with 2×10^6 Ehrlich ascites tumor cells, intraperitoneally on Day 0. Compound I was suspended by homogenation in 0.05% polysorbate.80-water and administered intraperitoneally at 10 and 20 mg/kg for 9 days to determine its effectiveness for inhibition of tumor growth. Mice were sacrificed on Day 10, and the ascites fluid was collected from the peritoneal cavity. The volume and ascrit (packed cell volume) were determined for each animal and the percent inhibition of tumor growth was calculated. For the metabolic studies, mice were treated on Days 8 and 9 with 10 mg/kg of Compound I, intraperitoneally. The animal was sacrificed on Day 10 and the ascites fluid harvested. The in vitro metabolic studies were performed at […] final concentration of Compound I.\nIn vitro and in vivo nuclear deoxyribonucleic acid polymerase activity was determined on isolated Ehrlich ascites cell nuclei. The incubation was that described by Sawada et al [Can. Res., 34, 3341 (1974)] except that [methyl-^3 H] deoxythymidine triphosphate (82.4 Ci/mmol) was used. The acid insoluble nucleic acid was collected on GF/F filters and counted. Nuclear ribonucleic acid polymerase activities were determined on enzymes isolated from nuclei. […] The acid insoluble ribonucleic acid was collected on nitrocellulose filters and counted.",
  "note": "pIC50: −log10 of the molar value.",
  "data": [
    {"substance": "{Cu[(CH3)3 N.BH2 CO2 ]2.(CH3)3 N.BH2 COOH} [Compound I]", "values": [
      {"measurement": "pIC50", "value": 3.36}
    ]}
  ]
}
